Here are results for 13 compounds from US20250018014A1, “METHOD FOR TREATING AND/OR PREVENTING REGNASE-1-RELATED DISEASE” (OSAKA UNIVERSITY, priority 2018, published 2025).

Read-outs that look alike come from different tables or passages of the source. Residues, ends and D or L forms follow the SMILES beside them.

In test [1] the target is T1, FL_Reg1 (full-length human Regnase-1) phosphorylation by IKKβ (Homo sapiens, UniProt Q5D1E8).
T1 construct: made in house; host or cells: Expi293 cells
T1 sequence (Q5D1E8 1-599): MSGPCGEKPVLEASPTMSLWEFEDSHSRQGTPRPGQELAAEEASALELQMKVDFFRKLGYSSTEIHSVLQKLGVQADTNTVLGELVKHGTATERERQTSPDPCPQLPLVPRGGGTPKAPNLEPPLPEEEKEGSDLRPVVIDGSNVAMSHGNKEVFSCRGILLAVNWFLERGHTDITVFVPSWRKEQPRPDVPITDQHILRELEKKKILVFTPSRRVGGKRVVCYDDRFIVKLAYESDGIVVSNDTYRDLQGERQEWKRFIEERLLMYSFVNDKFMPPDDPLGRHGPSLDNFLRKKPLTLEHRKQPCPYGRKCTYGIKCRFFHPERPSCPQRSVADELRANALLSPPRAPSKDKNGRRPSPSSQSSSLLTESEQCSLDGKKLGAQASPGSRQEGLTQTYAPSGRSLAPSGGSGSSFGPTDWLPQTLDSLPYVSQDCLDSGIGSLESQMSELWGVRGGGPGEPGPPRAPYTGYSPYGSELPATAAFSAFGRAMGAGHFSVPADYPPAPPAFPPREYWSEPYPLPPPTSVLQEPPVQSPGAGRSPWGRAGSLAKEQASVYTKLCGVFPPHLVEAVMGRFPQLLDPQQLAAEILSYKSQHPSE
In words: Regnase-1 phosphorylation inhibition by compounds (AlphaScreen), IKKβ, full-length Regnase-1. The format is biochemical. A digest of the protocol: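 FLAG/BirA-tagged human Regnase-1 constructs (full-length, 1–546 or 301–599), expressed in Expi293 cells, were used at 2 nM with compound and phosphorylated by IKKβ or TBK1 with 10 μM ATP, DTT, vanadate and MnCl2 for 2 h at room temperature. Phospho-Regnase-1 was read by AlphaScreen; IC50 came from % inhibition curves normalised to DMSO and Regnase-1-alone signals.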
(In general: Bead proximity is the source of the signal in Alpha formats.)

The target in test [2] is T2, binding between TBK1 and full-length Regnase-1 (FL_Reg1) (Homo sapiens, UniProt Q5D1E8).
T2 construct: made in house; host or cells: Expi293 cells
T2 sequence (Q5D1E8 1-599): T1 sequence (Q5D1E8 1-599)
The test can be described thus: Inhibition of kinase-Regnase-1 binding by the compounds (AlphaScreen), TBK1. The gist of the method:
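FLAG-tagged, biotin-acceptor-tagged full-length human Regnase-1 was expressed in Expi293 cells. It was mixed at 2.5 nM with compound, then 2.5 nM IKKβ or TBK1 was added for 2 h at room temperature. Binding was read with anti-FLAG acceptor and glutathione donor beads; IC50 came from dose-response inhibition relative to Regnase-1 alone and DMSO.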

The mark [3] stands for this setting: Table 14, phosphorylation by IKKβ, read-out: Phosphorylation inhibition FL_Reg1, 50% inhibition concentration (IKKβ).
The mark [4] stands for this setting: Table 13, binding between TBK1 and Regnase-1, read-out: Binding inhibition FL_Reg1, 50% inhibition concentration (TBK1).
[5] abbreviates: Table 11, 2 nM Regnase-1, AlphaScreen, read-out: 50% inhibition concentration, Regnase-1 phosphorylation, FL_Reg1, IKKβ.
Setting [6] is: Table 12, 2.5 nM Regnase-1, 2.5 nM TBK1, AlphaScreen, read-out: 50% inhibition concentration, binding between Regnase-1 and TBK1, FL_Reg1.

On to `CC[C@H](C)[C@@H]1NC(=O)[C@H](CCCNC(=N)N)NC(=O)[C@H](Cc2ccc(O)cc2)NC(=O)[C@H](Cc2c[nH]c3ccccc23)NC(=O)[C@H](CO)NC(=O)[C@H](CC(N)=O)NC(=O)[C@H](C)N(C)C(=O)C[C@@H](C(=O)N2CCCC2)NC(=O)[C@H](CC(C)C)NC(=O)CNC(=O)[C@H](Cc2c[nH]c3ccccc23)NC1=O` [PP22] (HELM PEPTIDE1{[meA].N.S.W.Y.R.I.W.G.L.D.[C1CCN([*:1])C1]}$PEPTIDE1,PEPTIDE1,1:R1-11:R3$$$V2.0), for which the IC50 was determined as 15 µM in test [1] (setting [3]) and 11.4 µM in test [2] (setting [4]).
As to `CC[C@H](C)[C@@H]1NC(=O)[C@H](CC(=O)O)NC(=O)[C@H](C)N(C)C(=O)C[C@@H](C(=O)N2CCCC2)NC(=O)[C@H](Cc2ccc(O)cc2)NC(=O)[C@H](CC(=O)O)NC(=O)[C@H](Cc2c[nH]c3ccccc23)NC(=O)[C@H](Cc2ccc(O)cc2)NC(=O)[C@H](CC(=O)O)NC(=O)[C@H](Cc2ccccc2)NC(=O)[C@H](Cc2c[nH]c3ccccc23)NC1=O` [PP18] (HELM PEPTIDE1{[meA].D.I.W.F.D.Y.W.D.Y.D.[C1CCN([*:1])C1]}$PEPTIDE1,PEPTIDE1,1:R1-11:R3$$$V2.0), the IC50 in test [1] (setting [3]) was 0.4 µM; in test [2] (setting [4]), less than 0.06 µM.
As to `CC[C@H](C)[C@@H]1NC(=O)[C@H](CC(N)=O)NC(=O)[C@H](Cc2ccc(O)cc2)NC(=O)[C@H](Cc2c[nH]c3ccccc23)NC(=O)[C@H](CO)NC(=O)[C@H](CC(N)=O)NC(=O)[C@H](C)NC(=O)[C@H](Cc2ccc(O)cc2)NC(=O)CNC(=O)[C@H](C)N(C)C(=O)C[C@@H](C(=O)N2CCCC2)NC(=O)[C@H](Cc2c[nH]c3ccccc23)NC1=O` [PP2] (HELM PEPTIDE1{[meA].G.Y.A.N.S.W.Y.N.I.W.D.[C1CCN([*:1])C1]}$PEPTIDE1,PEPTIDE1,1:R1-12:R3$$$V2.0), the IC50 in test [1] (setting [5]) came out at 16.6 µM; in test [2] (setting [6]), 15.5 µM.
Regarding `CC[C@H](C)[C@@H]1NC(=O)[C@H](Cc2c[nH]c3ccccc23)NC(=O)[C@@H](Cc2ccccc2)NC(=O)[C@H](CCCCN)NC(=O)[C@H](C)N(C)C(=O)C[C@@H](C(=O)N2CCCC2)NC(=O)[C@H](CCC(=O)O)NC(=O)[C@H](Cc2ccccc2)NC(=O)[C@H](CO)NC(=O)[C@H](Cc2c[nH]cn2)NC(=O)[C@H](Cc2c[nH]cn2)NC1=O` [PP20] (HELM PEPTIDE1{[meA].K.[dF].W.I.H.H.S.F.E.D.[C1CCN([*:1])C1]}$PEPTIDE1,PEPTIDE1,1:R1-11:R3$$$V2.0), the figures for the IC50 in test [1] (setting [3]) and in test [2] (setting [4]) were 24.7 µM and 47.6 µM, respectively.
`CC[C@H](C)[C@@H]1NC(=O)[C@H](Cc2c[nH]c3ccccc23)NC(=O)[C@H](CCC(N)=O)NC(=O)[C@H](Cc2ccc(O)cc2)NC(=O)[C@H](C(C)C)NC(=O)[C@H](C)NC(=O)[C@H](Cc2ccc(O)cc2)NC(=O)[C@H](CCCNC(=N)N)NC(=O)[C@H](C)N(C)C(=O)C[C@@H](C(=O)N2CCCC2)NC(=O)[C@@H]2CCCN2C(=O)[C@H](Cc2ccc(O)cc2)NC1=O` [PP12] (HELM PEPTIDE1{[meA].R.Y.A.V.Y.Q.W.I.Y.P.D.[C1CCN([*:1])C1]}$PEPTIDE1,PEPTIDE1,1:R1-12:R3$$$V2.0): the IC50 was 6.8 µM in test [1] (setting [3]) and more than 62.1 µM in test [2] (setting [4]).
Turning to `CC[C@H](C)[C@@H]1NC(=O)[C@H](CCCNC(=N)N)NC(=O)[C@H](Cc2ccc(O)cc2)NC(=O)[C@H](Cc2c[nH]c3ccccc23)NC(=O)[C@H](C)NC(=O)[C@H](CO)NC(=O)[C@H](C)NC(=O)[C@H](Cc2c[nH]cn2)NC(=O)[C@H](CCCCN)NC(=O)[C@@H](C)N(C)C(=O)C[C@@H](C(=O)N2CCCC2)NC(=O)[C@H](Cc2c[nH]c3ccccc23)NC1=O` [PP3] (HELM PEPTIDE1{[C[C@H](C(=O)[*:2])N(C)[*:1]].K.H.A.S.A.W.Y.R.I.W.D.[C1CCN([*:1])C1]}$PEPTIDE1,PEPTIDE1,1:R1-12:R3$$$V2.0), the IC50 in test [1] (setting [5]) turned out to be 4.6 µM; in test [2] (setting [6]), 3.1 µM.
As for `CC[C@H](C)[C@@H]1NC(=O)[C@H](Cc2c[nH]c3ccccc23)NC(=O)[C@H](CCCNC(=N)N)NC(=O)[C@H](Cc2ccccc2)NC(=O)[C@H](CCC(N)=O)NC(=O)[C@H](C)NC(=O)[C@H](Cc2ccccc2)NC(=O)[C@H](CCCCN)NC(=O)[C@H](C)N(C)C(=O)C[C@@H](C(=O)N2CCCC2)NC(=O)[C@@H]2CCCN2C(=O)[C@H](Cc2ccc(O)cc2)NC1=O` [PP11] (HELM PEPTIDE1{[meA].K.F.A.Q.F.R.W.I.Y.P.D.[C1CCN([*:1])C1]}$PEPTIDE1,PEPTIDE1,1:R1-12:R3$$$V2.0), the IC50 was found to be 22.3 µM in test [1] (setting [3]) and 60.9 µM in test [2] (setting [4]).
Take `CC(C)[C@@H]1NC(=O)[C@H](CCCCN)NC(=O)[C@H](Cc2ccc(O)cc2)NC(=O)[C@H](Cc2c[nH]c3ccccc23)NC(=O)[C@H](CO)NC(=O)[C@H]([C@@H](C)O)NC(=O)[C@H](C)N(C)C(=O)C[C@@H](C(=O)N2CCCC2)NC(=O)[C@H](CCC(N)=O)NC(=O)CNC(=O)[C@H](Cc2c[nH]c3ccccc23)NC(=O)[C@H](CC(N)=O)NC1=O` [PP1] (HELM PEPTIDE1{[meA].T.S.W.Y.K.V.N.W.G.Q.D.[C1CCN([*:1])C1]}$PEPTIDE1,PEPTIDE1,1:R1-12:R3$$$V2.0): the IC50 is 28.1 µM in test [1] (setting [5]), more than 62.1 µM in test [2] (setting [6]) and more than 62.1 µM in test [2] (setting [4]).
On to `CC[C@H](C)[C@@H]1NC(=O)[C@H](CC(N)=O)NC(=O)[C@H]([C@@H](C)CC)NC(=O)[C@H](Cc2ccc(O)cc2)NC(=O)[C@H](Cc2c[nH]c3ccccc23)NC(=O)[C@H](CO)NC(=O)[C@H](CC(N)=O)NC(=O)[C@H](C)N(C)C(=O)C[C@@H](C(=O)N2CCCC2)NC(=O)[C@H](Cc2c[nH]cn2)NC(=O)CNC(=O)[C@H](Cc2c[nH]c3ccccc23)NC1=O` [PP15] (HELM PEPTIDE1{[meA].N.S.W.Y.I.N.I.W.G.H.D.[C1CCN([*:1])C1]}$PEPTIDE1,PEPTIDE1,1:R1-12:R3$$$V2.0), for which the IC50 in test [1] (setting [3]) is 5.6 µM; in test [2] (setting [4]), 13.7 µM.
Regarding `CC[C@H](C)[C@@H]1NC(=O)[C@H](CO)NC(=O)[C@H](CCCNC(=N)N)NC(=O)[C@H](Cc2ccc(O)cc2)NC(=O)[C@H](Cc2ccc(O)cc2)NC(=O)[C@H](Cc2c[nH]c3ccccc23)NC(=O)[C@H](CO)NC(=O)[C@H](CCC(N)=O)NC(=O)[C@H](Cc2ccc(O)cc2)NC(=O)[C@H](CC(N)=O)NC(=O)[C@H](C)N(C)C(=O)C[C@@H](C(=O)N2CCCC2)NC(=O)[C@H](Cc2c[nH]c3ccccc23)NC1=O` [PP10] (HELM PEPTIDE1{[meA].N.Y.Q.S.W.Y.Y.R.S.I.W.D.[C1CCN([*:1])C1]}$PEPTIDE1,PEPTIDE1,1:R1-13:R3$$$V2.0), the IC50 in test [1] (setting [3]) was determined as 0.5 µM; in test [2] (setting [4]), 9.8 µM.
In the case of `CC[C@H](C)[C@@H]1NC(=O)[C@H](Cc2ccc(O)cc2)NC(=O)[C@H](C)N(C)C(=O)C[C@@H](C(=O)N2CCCC2)NC(=O)[C@H](CC(C)C)NC(=O)[C@H](CC(=O)O)NC(=O)CNC(=O)[C@H](Cc2ccccc2)NC(=O)[C@H](Cc2ccccc2)NC(=O)[C@H](CC(=O)O)NC(=O)[C@H](Cc2c[nH]c3ccccc23)NC1=O` [PP4] (HELM PEPTIDE1{[meA].Y.I.W.D.F.F.G.D.L.D.[C1CCN([*:1])C1]}$PEPTIDE1,PEPTIDE1,1:R1-11:R3$$$V2.0), the IC50 in test [1] (setting [5]) is 19.5 µM; in test [2] (setting [6]) it was 24.4 µM.
Consider `CC[C@H](C)[C@@H]1NC(=O)[C@H](CC(N)=O)NC(=O)[C@H](Cc2ccc(O)cc2)NC(=O)[C@H](Cc2c[nH]c3ccccc23)NC(=O)[C@H](CO)NC(=O)[C@H](CC(N)=O)NC(=O)[C@H](CO)NC(=O)[C@H](Cc2ccccc2)NC(=O)[C@H](CC(N)=O)NC(=O)[C@H](C)N(C)C(=O)C[C@@H](C(=O)N2CCCC2)NC(=O)[C@H](Cc2c[nH]c3ccccc23)NC1=O` [PP16] (HELM PEPTIDE1{[meA].N.F.S.N.S.W.Y.N.I.W.D.[C1CCN([*:1])C1]}$PEPTIDE1,PEPTIDE1,1:R1-12:R3$$$V2.0), for which the IC50 in test [1] (setting [3]) was determined as 20.6 µM; in test [2] (setting [4]) it was 20.2 µM.
With `CC[C@H](C)[C@@H]1NC(=O)[C@H](CCCCN)NC(=O)[C@H](Cc2ccccc2)NC(=O)[C@H](Cc2c[nH]c3ccccc23)NC(=O)[C@H](CO)NC(=O)[C@H](CO)NC(=O)[C@H](CC(N)=O)NC(=O)[C@@H]2CCCN2C(=O)[C@@H](C)N(C)C(=O)C[C@@H](C(=O)N2CCCC2)NC(=O)[C@H](Cc2c[nH]c3ccccc23)NC1=O` [PP6] (HELM PEPTIDE1{[C[C@H](C(=O)[*:2])N(C)[*:1]].P.N.S.S.W.F.K.I.W.D.[C1CCN([*:1])C1]}$PEPTIDE1,PEPTIDE1,1:R1-11:R3$$$V2.0), the figures for the IC50 in test [1] (setting [5]) and in test [2] (setting [6]) were 17 µM and 19.2 µM, respectively.
